According to patent publication US11186589B2, “Cyanoindoline derivatives as NIK inhibitors” (Janssen Pharmaceutica NV, priority 2016, dated 2021):
Like-named read-outs stand apart in the source and are kept apart here.

Legend:
[1] = test system: P-IKKα levels in L363 cells; assay: Effect of compounds on P-IKKα levels in L363 (NIK translocated multiple myeloma) cells; type: cell-based, human; details: 2 hr treatment, averaged values, read-out: Inhibition of pIKKα_L-363 (IC50 (nM))
Method: Effect of Compounds on P-IKKα Levels in L363 (NIK Translocated Multiple Myeloma) Cells
All compounds tested were dissolved in DMSO and further dilutions were made in culture medium. Final DMSO concentration was 1% (v/v) in cell assays. The human L363 cells (ATCC) were cultured in RPMI 1640 medium supplemented with GlutaMax and 10% fetal calf serum (PAA). Cells were routinely maintained at densities of 0.2×10^6 cells per ml—1×10^6 cells per ml at 37° C. in a humidified 5% CO2 atmosphere. Cells were passaged twice a week splitting back to obtain the low density. Cells were seeded in 96 well plates (Nunc 167008) at 2×10^6 per ml media in a volume of 75 μl per well plus 25 μl 1 μg/ml recombinant human B-cell activating factor (BAFF/BLyS/TNFSF13B). Seeded cells were incubated at 37° C. in a humidified 5% CO2 atmosphere for 24 hr. Drugs and/or solvents were added (20 μl) to a final volume of 120 μl. Following 2 hr treatment plates were removed from the incubator and cell lysis was achieved by the addition of 30 μl 5× lysis buffer followed by shaking on a plate shaker at 4° C. for 10 min. At the end of this incubation lysed cells were centrifuged at 800×g for 20 min at 4° C. and the lysate was assessed for P-IKKα levels by sandwich immuno-assay carried out in anti-rabbit antibody coated Mesoscale plates. Within an experiment, the results for each treatment were the mean of 2 replicate wells. For initial screening purposes, compounds were tested using an 8 point dilution curve (serial 1:3 dilutions). For each experiment, controls (containing MG132 and BAFF but no test drug) and a blank incubation (containing MG132 and BAFF and 10 μM ADS125117, a test concentration known to give full inhibition) were run in parallel. The blank incubation value was subtracted from all control and sample values. To determine the IC50 a sigmoidal curve was fitted to the plot of % inhibition of control P-IKKα levels versus Log10 compound concentration.

JJN-3 cells = assay: Antiproliferative activity on JJN-3 (NIK translocated) multiple myeloma cells (CellTiter-Glo); type: cell-based, human; details: JJN-3 (NIK translocated) cells, 96 hr treatment, averaged values, read-out: JJN-3 Proliferation inhibition (IC50 (nM))
Method: (§1) Determination of Antiproliferative Activity on JJN-3 (NIK Translocated) and KMS12-BM (NIK WT) Multiple Myeloma Cells
(§2) All compounds tested were dissolved in DMSO and further dilutions were made in culture medium. Final DMSO concentration was 0.3% (v/v) in cell proliferation assays. Viability was assessed using CellTiter-Glo cell viability assay kit (Promega). The human JJN-3 and KMS12-BM cells (DSMZ) were cultured in RPMI 1640 medium supplemented with 2 mM L-glutamine, and 10% fetal calf serum (PAA). Cells were routinely kept as suspension cells at 37° C. in a humidified 5% CO2 atmosphere. Cells were passaged at a seeding density of 0.2×10^6/ml twice a week. Cells were seeded in black tissue culture treated 96-well plates (Perkin Elmer). Densities used for plating ranged from 15000 (JJN3) to 20000 (KMS12BM) cells per well in a total volume of […]. Drugs and/or solvents were added (15 μl) to a final volume of 150 μl. Following 96 hr of treatment, plates were removed from the incubator and allowed to equilibrate to room temperature for approx 10 min. 75 μl CellTiter-Glo reagent was added to each well that was then covered (Perkin Elmer Topseal) and shaken on plate shaker for 10 min. Luminescence was measured on a HTS Topcount (Perkin Elmer). Within an experiment, the results for each treatment were the mean of 2 replicate wells. For initial screening purposes, compounds were tested using a 9 point dilution curve (serial 1:3 dilutions). For each experiment, controls (containing no drug) and a blank incubation (containing cells read at the time of compound addition) were run in parallel. The blank value was subtracted from all control and sample values. For each sample, the mean value for cell growth (in relative light units) was expressed as a percentage of the mean value for cell growth of the control.

NIK/MAP3K14 = NIK/MAP3K14 (Homo sapiens (Human), UniProt Q99558); assay: Inhibition of auto-phosphorylation of recombinant human NF-kappaB-inducing kinase (NIK/MAP3K14) activity (AlphaScreen); type: biochemical; details: averaged values over all measurements on all batches, 25 microM ATP
NIK/MAP3K14, sequence (Q99558 whole entry): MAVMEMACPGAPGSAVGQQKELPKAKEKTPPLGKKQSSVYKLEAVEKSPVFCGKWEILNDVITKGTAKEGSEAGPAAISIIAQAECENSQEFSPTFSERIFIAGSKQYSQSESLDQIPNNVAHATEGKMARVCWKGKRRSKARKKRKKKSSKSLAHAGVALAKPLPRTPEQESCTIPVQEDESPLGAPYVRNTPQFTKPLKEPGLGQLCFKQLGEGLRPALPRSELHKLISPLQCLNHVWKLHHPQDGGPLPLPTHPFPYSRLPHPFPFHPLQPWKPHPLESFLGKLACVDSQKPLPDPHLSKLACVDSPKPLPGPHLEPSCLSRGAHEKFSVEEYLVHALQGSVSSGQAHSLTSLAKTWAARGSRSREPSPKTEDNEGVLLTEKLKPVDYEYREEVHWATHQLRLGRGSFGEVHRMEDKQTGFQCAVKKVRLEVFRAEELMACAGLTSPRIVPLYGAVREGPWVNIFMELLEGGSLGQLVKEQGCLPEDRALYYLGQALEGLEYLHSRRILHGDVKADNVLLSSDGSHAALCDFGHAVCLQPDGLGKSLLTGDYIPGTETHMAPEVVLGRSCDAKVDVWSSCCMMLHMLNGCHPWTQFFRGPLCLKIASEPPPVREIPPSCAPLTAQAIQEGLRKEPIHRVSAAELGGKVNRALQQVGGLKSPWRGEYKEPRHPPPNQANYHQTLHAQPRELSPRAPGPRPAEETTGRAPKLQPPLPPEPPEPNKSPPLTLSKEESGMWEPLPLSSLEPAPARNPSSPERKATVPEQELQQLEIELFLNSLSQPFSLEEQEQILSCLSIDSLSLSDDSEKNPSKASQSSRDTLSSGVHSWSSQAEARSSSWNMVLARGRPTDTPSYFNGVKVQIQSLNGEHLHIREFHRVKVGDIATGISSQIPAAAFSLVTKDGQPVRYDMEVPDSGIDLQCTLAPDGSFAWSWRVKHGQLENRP
Method: Inhibition of Auto-Phosphorylation of Recombinant Human NF-kappaB-Inducing Kinase ([…]) Activity (AlphaScreen®)
NIK/MAP3K14 auto-phosphorylation activity was measured using the AlphaScreen® (αscreen) format (Perkin Elmer). All compounds tested were dissolved in dimethyl sulfoxide (DMSO) and further dilutions were made in assay buffer. Final DMSO concentration was […] in assays. Assay buffer was 50 mM Tris pH 7.5 containing 1 mM EGTA (ethylene glycol tetraacetic acid), 1 mM DTT (dithiothreitol), 0.1 mM Na3VO4, 5 mM MgCl2, 0.01% Tween® 20. Assays were carried out in 384 well Alphaplates (Perkin Elmer). Incubations consisted of compound, 25 microM Adenosine-5′-triphosphate (ATP), and 0.2 nM NIK/MAP3K14. Incubations were initiated by addition of GST-tagged NIK/MAP3K14 enzyme, carried out for 1 h at 25° C. and terminated by addition of stop buffer containing anti-phospho-[…] Ser176/180 antibody. Protein A Acceptor and Glutathione-Donor beads were added before reading using an EnVision® Multilabel Plate Reader (Perkin Elmer). Signal obtained in the wells containing blank samples was subtracted from all other wells and IC50's were determined by fitting a sigmoidal curve to % inhibition of control versus Log10 compound concentration.

KMS12-BM cells = assay: Antiproliferative activity on KMS12-BM (NIK WT) multiple myeloma cells (CellTiter-Glo); type: cell-based, human; details: 96 hr treatment, averaged values, read-out: KMS-12 Proliferation inhibition (IC50 (nM))
Method: as §1, §2

Compound | IC50 ([1]; Homo sapiens, L-363, 2 h) [nM] | IC50 (JJN-3 cells; Homo sapiens, JJN-3, 96 h) [nM] | IC50 (NIK/MAP3K14) [nM] | IC50 (KMS12-BM cells; Homo sapiens, KMS-12-BM, 96 h) [nM] | IC50 (JJN-3 cells) [nM] | IC50 (KMS12-BM cells) [nM] | IC50 [1] [nM]
CC(C)C1CCn2ncc(Nc3nccc(-c4cc(C#N)c5c(c4)[C@@](C)(CO)CN5)n3)c2O1 (single isomer, unassigned) [Compound 22b] | 3 |  | 7.1 |  | 166 | > 10000 | 
CC1(C)CCOc2c(Nc3nccc(-c4cc(C#N)c5c(c4)[C@@](C)(CO)CN5)n3)cnn21 [Compound 24b] | 28 | 676 | 4.9 | ~5890 |  |  | 
CN1CCn2nc(Nc3nccc(-c4cc(C#N)c5c(c4)[C@@](C)(CO)CN5)n3)cc2C1=O [Compound 13b] | 29 | 457 | 2 | ~1860 |  |  | 
CC(C)C1CCn2ncc(Nc3nccc(-c4cc(C#N)c5c(c4)[C@@](C)(CO)CN5)n3)c2O1 (single isomer, unassigned) [Compound 23b] |  |  | 6.9 |  | 45 | ~2240 | 2
CC(C)N1CCn2ncc(Nc3nccc(-c4cc(C#N)c5c(c4)[C@@](C)(CO)CN5)n3)c2C1 [Compound 18b] | 7 | 288 | 6.2 | ~5500 |  |  | 
CC1CCn2ncc(Nc3nccc(-c4cc(C#N)c5c(c4)[C@@](C)(CO)CN5)n3)c2O1 (single isomer, unassigned) [Compound 2b] |  |  | 2 |  | 93 | > 10000 | 4
CC1CCn2ncc(Nc3nccc(-c4cc(C#N)c5c(c4)[C@@](C)(CO)CN5)n3)c2O1 (single isomer, unassigned) [Compound 1b] | 2 | 58 | 2.8 |  |  | ~2820 | 
C[C@]1(CO)CNc2c(C#N)cc(-c3ccnc(Nc4cc5c(nc4CCC4CC4)CCOC5)n3)cc21 [Compound 21] | 21 | 81 | 3 | 3890 |  |  | 
CN1CCn2ncc(Nc3nccc(-c4cc(C#N)c5c(c4)[C@@](C)(CO)CN5)n3)c2C1=O [Compound 3b] | 3 | 91 | 1 | > 10000 |  |  | 
CN1CCn2ncc(Nc3nccc(-c4cc(C#N)c5c(c4)[C@@](C)(CO)CN5)n3)c2C1 [Compound 15b] | 11 | 200 | 3.5 | ~4470 |  |  | 
CC1CC(C)n2ncc(Nc3nccc(-c4cc(C#N)c5c(c4)C(C)(CO)CN5)n3)c2O1 (racemic) [Compound 21b] |  | 269 | 5.9 | 2510 |  |  | 5
CN(C)C1COc2c(cc(Cl)cc2Nc2nccc(-c3cc(C#N)c4c(c3)[C@@](C)(CO)CN4)n2)C1 (stereo partly drawn) [Compound 18] | 16 |  | 4.1 |  | 1 | 9 | 
Cc1cc2c(cc1Nc1nccc(-c3cc(C#N)c4c(c3)[C@@](C)(CO)CN4)n1)CCN(C)CC2 [Compound 23] | ~79 | 162 | 4.8 | ~550 |  |  | 
COc1nc2c(cc1Nc1nccc(-c3cc(C#N)c4c(c3)[C@@](C)(CO)CN4)n1)COCC2 [Compound 25] | 10 | 174 | 1.7 | > 10000 |  |  | 
COC[C@@H]1Cn2ncc(Nc3nccc(-c4cc(C#N)c5c(c4)[C@@](C)(CO)CN5)n3)c2O1 [Compound 19b] | 19 | 316 | 11.7 | ~5500 |  |  | 

Results, then the compound that gave them:

IC50 ([1]; Homo sapiens, L-363, 2 h) [nM] | IC50 (JJN-3 cells; Homo sapiens, JJN-3, 96 h) [nM] | IC50 (NIK/MAP3K14) [nM] | IC50 (KMS12-BM cells; Homo sapiens, KMS-12-BM, 96 h) [nM] | IC50 (JJN-3 cells) [nM] | IC50 (KMS12-BM cells) [nM] | IC50 [1] [nM] | Compound
501 | 692 | 5.1 | ~525 |  |  |  | CN1CCc2cc(CCC3CC3)c(Nc3nccc(-c4cc(C#N)c5c(c4)[C@@](C)(CO)CN5)n3)cc2CC1 (mixture of isomers) [Compound 26]
20 | 778 | 13 | > 10000 |  |  |  | CC(C)Oc1nc2c(cc1Nc1nccc(-c3cc(C#N)c4c(c3)[C@@](C)(CO)CN4)n1)COCC2 [Compound 46]
35 | > 10000 | 4.5 | > 10000 |  |  |  | CNC(=O)c1cc(Nc2nccc(-c3cc(C#N)c4c(c3)[C@@](C)(CO)CN4)n2)c(=O)n2c1CCC2 [Compound 44]
4 | 52 | 3.4 | ~174 |  |  |  | C[C@]1(CO)CNc2c(C#N)cc(-c3ccnc(Nc4cnc5c(c4)CN(C4CC4)CC5)n3)cc21 [Compound 51]
~1200 | 871 | 7.1 | 1380 |  |  |  | CCCCCc1cc2c(cc1Nc1nccc(-c3cc(C#N)c4c(c3)[C@@](C)(CO)CN4)n1)CCN(C)CC2 (mixture of isomers) [Compound 27]
63 | ~2140 | 5 | ~7760 |  |  |  | CC1(CO)COc2c(Nc3nccc(-c4cc(C#N)c5c(c4)[C@@](C)(CO)CN5)n3)cnn2C1 (mixture of isomers) [Compound 31b]
7 | 3020 | 8.1 | > 10000 |  |  |  | CC1(C)CCn2ncc(Nc3nccc(-c4cc(C#N)c5c(c4)[C@@](C)(CO)CN5)n3)c2O1 [Compound 25b]
25 | 1700 | 9.5 | ~9550 |  |  |  | C[C@]1(CO)CNc2c(C#N)cc(-c3ccnc(Nc4cnn5c4C(=O)N(Cc4ccccc4)CC5)n3)cc21 [Compound 26b]
23 | 1740 | 10.5 | > 10000 |  |  |  | C[C@]1(CO)CNc2c(C#N)cc(-c3ccnc(Nc4cc5c(nc4OCC4CC4)CCOC5)n3)cc21 [Compound 34]
251 | 3390 | 17 | > 10000 |  |  |  | CC(C)N1CCCn2ncc(Nc3nccc(-c4cc(C#N)c5c(c4)[C@@](C)(CO)CN5)n3)c2C1=O [Compound 28b]
56 | 240 | 3.4 | 3980 |  |  |  | CC(C)Oc1nc2c(cc1Nc1nccc(-c3cc(C#N)c4c(c3)[C@@](C)(CO)CN4)n1)CN(C)CC2 [Compound 50]
14 | 851 | 1.1 | > 10000 |  |  |  | Cc1nc2c(cc1Nc1nccc(-c3cc(C#N)c4c(c3)[C@@](C)(CO)CN4)n1)COCC2 [Compound 28]
